Assays:
11β-HSD1 = 11β-HSD1 (Homo sapiens (Human), UniProt P28845); assay: 11β-hydroxysteroid dehydrogenase (HSD) 1 Assay (Assay 2), HTRF; type: biochemical; conditions: for IC50: human liver microsomes, cortisol generated from cortisone, HTRF, read-out: 11βHSD1 IC50
Procedure: The compounds of this invention or the physiological acceptable salts thereof were tested for their inhibitory effect on the enzyme 11β-hydroxysteroid dehydrogenase (HSD) 1.
B. 11β-hydroxysteroid dehydrogenase (HSD) 1 Assay (Assay 2)
Compounds were incubated for 1 hour at 37° C. in Tris buffer (20 mM tris, 5 mM EDTA, pH 6.0) containing NADPH (200 μM) and cortisone (80 nM). Cortisol generated in the reaction was then detected by a competitive immunoassay involving two HTRF conjugates: cortisol linked to XL665 and anticortisol antibody labeled with Europium cryptate. The incubation period for detection reaction was 2 hours. The amount of cortisol is determined by reading the time-resolved fluorescence of the wells (Ex 320/75 nm; Em 615/8.5 nm and 665/7.5 nm). The ratio of the two emission signals was then calculated (Em665*10000/Em615). […] Each assay also comprised a calibration curve with cortisol to transform the fluorescent data into cortisol concentrations.
Percent inhibition (% CTL) of each compound is determined relative to the carbenoxolone signal and IC50 curves were generated.

human mGlu5a receptor = human mGlu5a receptor (Homo sapiens (Human), UniProt P41594); assay: mGlu5 NAM FLIPR Assay (Assay 1); type: cell-based; conditions: for IC50: HEK293 cells stably expressing human mGlu5a, antagonism of EC90 glutamate, [Ca]i
Chain of human mGlu5a receptor (P41594 other isoform, or with tags, fused parts or gaps): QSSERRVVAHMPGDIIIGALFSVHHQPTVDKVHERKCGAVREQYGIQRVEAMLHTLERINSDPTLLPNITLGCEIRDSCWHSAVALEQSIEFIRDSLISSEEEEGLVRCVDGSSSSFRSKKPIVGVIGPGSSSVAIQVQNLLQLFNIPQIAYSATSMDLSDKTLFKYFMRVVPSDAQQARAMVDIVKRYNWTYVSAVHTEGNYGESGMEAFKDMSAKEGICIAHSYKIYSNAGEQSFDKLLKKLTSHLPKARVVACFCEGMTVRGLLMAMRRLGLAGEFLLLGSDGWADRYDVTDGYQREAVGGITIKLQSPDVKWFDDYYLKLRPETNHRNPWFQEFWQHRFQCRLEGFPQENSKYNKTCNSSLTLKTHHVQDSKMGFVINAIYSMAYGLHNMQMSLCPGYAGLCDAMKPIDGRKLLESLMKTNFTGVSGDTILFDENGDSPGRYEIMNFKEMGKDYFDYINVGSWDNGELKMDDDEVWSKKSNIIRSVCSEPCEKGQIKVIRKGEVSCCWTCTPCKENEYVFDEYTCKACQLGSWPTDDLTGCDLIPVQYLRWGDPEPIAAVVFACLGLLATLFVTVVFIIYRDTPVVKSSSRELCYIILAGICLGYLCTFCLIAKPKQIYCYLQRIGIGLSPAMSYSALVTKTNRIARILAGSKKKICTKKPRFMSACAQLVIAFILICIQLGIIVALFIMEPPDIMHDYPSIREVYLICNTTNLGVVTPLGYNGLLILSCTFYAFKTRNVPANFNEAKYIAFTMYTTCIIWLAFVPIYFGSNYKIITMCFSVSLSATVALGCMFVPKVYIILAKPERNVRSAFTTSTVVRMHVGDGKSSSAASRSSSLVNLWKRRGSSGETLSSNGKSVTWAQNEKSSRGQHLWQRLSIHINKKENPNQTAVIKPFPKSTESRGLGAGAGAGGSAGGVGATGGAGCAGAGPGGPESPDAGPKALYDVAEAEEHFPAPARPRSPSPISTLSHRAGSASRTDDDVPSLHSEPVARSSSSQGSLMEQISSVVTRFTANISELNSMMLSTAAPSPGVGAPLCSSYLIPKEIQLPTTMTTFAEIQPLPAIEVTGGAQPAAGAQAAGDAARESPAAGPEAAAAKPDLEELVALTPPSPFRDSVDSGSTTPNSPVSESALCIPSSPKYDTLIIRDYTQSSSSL
Procedure: A. mGlu5 NAM FLIPR Assay (Assay 1)
Activation of the mGluR5 receptor expressed in cell lines results in an increase in intracellular calcium concentration. Using calcium sensitive fluorescent dyes and a suited fluorescence plate reader this functional response is detectable and quantifiable. This technique could be used to characterize pharmacological modifications of the mGluR5 receptor.
[Ca]i measurements were performed in HEK293 cells stably expressing the full-length human mGlu5a receptor under the control of a tet-regulated promoter. Cells were cultivated in Dulbecco's modified eagle's medium (DMEM) with 10% fetal calf serum, 100 μg/ml HygromycinB, 500 μg/ml G418 and 2 μg/ml Tetracycline in a 37°, 95% humidity and 5% CO2 incubator. Confluent cell cultures were split on a bi-weekly schedule.
72 hours prior to the assay run mGluR5a expression was induced by replacing the culture medium by DMEM with 10% fetal calf serum without antibiotics. 24 hours prior to the assay run, cell medium was replaced after two wash steps by DMEM, 10% fetal calf serum without glutamine and phenol red. On the assay day, cells were detached from the culture flask by versene, washed, resuspended in a modified Ringer solution with 5 mM Glucose and 10 mM HEPES pH7.4, and plated on Poly-D-Lysine coated 384-well plates with a density of 10.000 cells/60 μl per well. After a seeding time of 1 hour in the incubator the cells were dye-loaded by adding 20 μl of a 4-fold concentrated dye solution from the Calcium 4 kit (Molecular Devices Inc., R8141) according to the manufacturer's manual and incubated for an additional 100 minutes. Compounds were prepared by a 11 point serial dilution in DMSO and a final dilution step into assay puffer (modified Ringer) to ensure a final DMSO concentration of 1% in the assay.
Measurements were done in a two-step procedure. A first measurement was performed directly after the addition of compounds to the cell plates to quantify and correct for compound related non specific effects (e.g. auto fluorescence). 5 minutes later, the antagonistic activities of the compounds were measured by addition of a EC90 concentration of the agonist glutamate (the EC90 concentration was controlled by glutamate dose-response curves). All measurements were done with a fluorimetric imaging plate reader (FLIPR, Molecular Devices Inc.).
IC50 values and Hill slopes were derived from 11-point four parametric non-linear curve fittings with the AssayExplorer software using peak heights of fluorescence signals.

Chain of 11β-HSD1 (P28845 whole entry): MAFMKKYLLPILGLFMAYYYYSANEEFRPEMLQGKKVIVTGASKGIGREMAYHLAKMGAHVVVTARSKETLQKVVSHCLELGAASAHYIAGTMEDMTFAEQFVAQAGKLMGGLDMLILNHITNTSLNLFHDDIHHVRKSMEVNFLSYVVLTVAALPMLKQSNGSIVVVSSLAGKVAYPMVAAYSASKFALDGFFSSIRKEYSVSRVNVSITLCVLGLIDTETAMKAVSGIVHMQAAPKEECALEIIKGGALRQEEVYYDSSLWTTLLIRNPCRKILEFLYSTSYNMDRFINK

Row | Compound | IC50 (11β-HSD1) [µM] | IC50 (human mGlu5a receptor) [µM] | activity on 11βHSD1 (assay 2), in words (11β-HSD1) | activity in assay 1 (mGlu5), in words (human mGlu5a receptor)
1 | Cc1cc(C(F)(F)F)n2nc(C(=O)N3CCc4ncsc4CC3)cc2n1 [D, reference compound] | > 10 | > 10 |  | 
2 | O=C(c1cc2ncc(Cl)cn2n1)N1CCc2[nH]c(=O)sc2CC1 [Example 19, 6-(6-Chloro-pyrazolo[1,5-a]pyrimidine-2-carbonyl)-3,4,5,6,7,8-hexahydro-thiazolo[4,5-d]azepin-2-one] |  | 0.128 |  | 
3 | Cn1cnc2c1CCN(C(=O)c1cc3ncc(Br)cn3n1)CC2 [Example 15, (6-Bromo-pyrazolo[1,5-a]pyrimidin-2-yl)-(1-methyl-4,5,7,8-tetrahydro-1H-imidazo[4,5-d]azepin-6-yl)-methanone] | > 10 | 0.692 |  | 
4 | CC(C)c1nc2c(s1)CCN(C(=O)c1cc3ncc(Cl)cn3n1)CC2 [Example 18, (6-Chloro-pyrazolo[1,5-a]pyrimidin-2-yl)-(2-isopropyl-4,5,7,8-tetrahydro-thiazolo[4,5-d]azepin-6-yl)-methanone] |  | 0.235 |  | 
5 | O=C(c1cc2ncc(Br)cn2n1)N1CCc2cccnc2CC1 [Example 14, (6-Bromo-pyrazolo[1,5-a]pyrimidin-2-yl)-(5,6,8,9-tetrahydro-pyrido[2,3-d]azepin-7-yl)-methanone] | > 10 | 0.603 |  | 
6 | COc1ccc2c(n1)CCN(C(=O)c1cc3ncc(Br)cn3n1)CC2 [Example 2, (6-Bromo-pyrazolo[1,5-a]pyrimidin-2-yl)-(2-methoxy-5,6,8,9-tetrahydro-pyrido[2,3-d]azepin-7-yl)-methanone] | > 10 | 0.23 |  | 
7 | O=C(c1cc2ncc(Br)cn2n1)N1CCc2ccsc2CC1 [Example 3, (6-Bromo-pyrazolo[1,5-a]pyrimidin-2-yl)-(4,5,7,8-tetrahydro-thieno[2,3-d]azepin-6-yl)-methanone] | > 10 | 1.39 |  | 
8 | O=C(c1cc2ncc(Br)cn2n1)N1CCc2ncsc2CC1 [Example 5, (6-Bromo-pyrazolo[1,5-a]pyrimidin-2-yl)-(4,5,7,8-tetrahydro-thiazolo[4,5-d]azepin-6-yl)-methanone] | > 10 | 0.11 |  | 
9 | Cn1c2c(c3ccccc31)CCN(C(=O)c1cc3ncc(Br)cn3n1)CC2 [Example 17, (6-Bromo-pyrazolo[1,5-a]pyrimidin-2-yl)-(6-methyl-1,4,5,6-tetrahydro-2H-azepino[4,5-b]indol-3-yl)-methanone] | > 10 | 0.55 |  | 
10 | COc1cccc(-c2cc(C(F)(F)F)n3nc(C(=O)N4CCc5ncsc5CC4)cc3n2)c1 [E, reference compound] | > 10 | > 10 |  | 
11 | O=C(c1cc2ncc(Br)cn2n1)N1CCOCC1 [Example 4-22, reference compound] | > 10 | > 10 |  | 
12 | O=C(c1cc2ncc(Br)cn2n1)N1CCCCC1 [Example 4-21, reference compound] | > 10 | > 10 |  | 
13 | O=C(c1cc2ncc(Br)cn2n1)N1CCc2[nH]c(=O)sc2CC1 [Example 11, 6-(6-Bromo-pyrazolo[1,5-a]pyrimidine-2-carbonyl)-3,4,5,6,7,8-hexahydro-thiazolo[4,5-d]azepin-2-one] | > 10 | 0.066 |  | 
14 | O=C(c1cc2ncc(Br)cn2n1)N1CCCCCC1 [B, reference compound] | > 10 | > 10 | inactivity | inactivity
15 | (6-Bromo-pyrazolo[1,5-a]pyrimidin-2-yl)-(2-methyl-4,5,7,8-tetrahydro-3H-1lambda*4*-thiazolo[4,5-d]azepin-6-yl)-methanone [Example 6] | > 10 | 0.043 |  | 
16 | COCc1nc2c(s1)CCN(C(=O)c1cc3ncc(Br)cn3n1)CC2 [Example 8, (6-Bromo-pyrazolo[1,5-a]pyrimidin-2-yl)-(2-methoxymethyl-4,5,7,8-tetrahydro-thiazolo[4,5-d]azepin-6-yl)-methanone] | > 10 | 1.54 |  | 
17 | O=C(c1cc2ncc(Br)cn2n1)N1CCc2ccc(Cl)nc2CC1 [Example 1, (6-Bromo-pyrazolo[1,5-a]pyrimidin-2-yl)-(2-chloro-5,6,8,9-tetrahydro-pyrido[2,3-d]azepin-7-yl)-methanone] | > 10 | 0.146 |  | 
18 | Cc1nc2c(s1)CCN(C(=O)c1cc3ncc(Cl)cn3n1)CC2 [Example 13, (6-Chloro-pyrazolo[1,5-a]pyrimidin-2-yl)-(2-methyl-4,5,7,8-tetrahydro-thiazolo[4,5-d]azepin-6-yl)-methanone] | > 10 | 0.063 |  | 
19 | CC(C)c1nc2c(s1)CCN(C(=O)c1cc3ncc(Br)cn3n1)CC2 [Example 12, (6-Bromo-pyrazolo[1,5-a]pyrimidin-2-yl)-(2-isopropyl-4,5,7,8-tetrahydro-thiazolo[4,5-d]azepin-6-yl)-methanone] | > 10 | 0.148 |  | 
20 | O=C(c1cc2ncc(Cl)cn2n1)N1CCc2ncsc2CC1 [Example 10, (6-Chloro-pyrazolo[1,5-a]pyrimidin-2-yl)-(4,5,7,8-tetrahydro-thiazolo[4,5-d]azepin-6-yl)-methanone] | > 10 | 0.059 |  | 
21 | Cc1cnc2cc(C(=O)N3CCc4ncsc4CC3)nn2c1 [Example 9] | > 10 | 1.42 |  | 
22 | O=C(c1cc2ncc(Br)cn2n1)N1CCc2cc(Cl)nnc2CC1 [Example 7, (6-Bromo-pyrazolo[1,5-a]pyrimidin-2-yl)-(3-chloro-5,6,8,9-tetrahydro-1,2,7-triaza-benzocyclohepten-7-yl)-methanone] | > 10 | 0.34 |  | 
23 | O=C(c1cc2ncc(Br)cn2n1)N1CCCC1 [A, reference compound] |  | > 10 | inactivity | inactivity
24 | COc1ccc(-c2cc(C(F)(F)F)n3nc(C(=O)N4CCc5ncsc5CC4)cc3n2)cc1 [C, reference compound] | > 10 | > 10 |  | 
25 | Cn1c2c(sc1=O)CCN(C(=O)c1cc3ncc(Br)cn3n1)CC2 [Example 16, 6-(6-Bromo-pyrazolo[1,5-a]pyrimidine-2-carbonyl)-3-methyl-3,4,5,6,7,8-hexahydro-thiazolo[4,5-d]azepin-2-one] | > 10 | 1.28 |  | 
26 | CCc1nc2c(s1)CCN(C(=O)c1cc3ncc(Br)cn3n1)CC2 [Example 4, (6-Bromo-pyrazolo[1,5-a]pyrimidin-2-yl)-(2-ethyl-4,5,7,8-tetrahydro-thiazolo[4,5-d]azepin-6-yl)-methanone] | > 10 | 0.033 |  | 

— patent publication US9029360B2, “Pyrazolopyrimidines as metabotropic glutamate 5 receptor antagonists” (Boehringer Ingelheim International GmbH, priority 2012, dated 2015)
